These results are taken from patent US7795505B2, “Herbicide-resistance gene and utilization thereof” (Hokko Chemical Industry Co., Ltd., priority 2004, dated 2010).

The subject of data set [1] is enzyme capable of acetylating PPT of Streptomyces sp. AB3534 strain (pUC18-B2). As to the kind of experiment: Acetylation reaction with crude enzyme solution from E. coli transformed with pUC18-B2 (absorbance at 412 nm). Particulars: substrate specificity, vector pUC18-B2 (present invention). The class given is biochemical.
Protocol: (§1) Escherichia coli transformed with pUC18-B2 having the herbicide-resistance gene of the present invention was inoculated into a liquid medium containing 50 ml of LB medium and 50 mg/L ampicillin, and cultured at 37° C. for 1 hour, and 50 μl of a 1 M thiogalactopyranoside solution was added to the culture solution, followed by culture at 37° C. for 3 hours. After completion of the culture, the culture solution was centrifuged at 5,000 rpm for 15 minutes to collect bacterial cells, and the cells were washed once with physiological saline. Then, the washed bacterial cells were suspended in 2 ml of a 20 mM Trisbuffer (pH 8.0) solution and disrupted by ultrasonic waves at 4° C. The solution was centrifuged at 15,000 rpm for 15 minutes to collect the supernatant. The supernatant was diluted 10-fold with 20 mM Tris buffer (pH 8.0) to prepare a crude enzyme solution. Then, 2 μl of the crude solution was added to 98 μl of a reaction solution, and the mixture was allowed to react at 28° C. for 1 hour, followed by measurement of the absorbance at 412 nm to measure the acetylation reaction. […]
(§2) The optimum pH and substrate specificity (Km value) to PPT and a structural homologue thereof, methionine sulfone (MS) were measured, and the results are shown in Table 2.
For data set [2], the system named is enzyme capable of acetylating PPT derived from actinomycete AB2253 strain (pUC19-AB). Nature of the data set: Acetylation reaction with crude enzyme solution from E. coli transformed with pUC19-AB. The class given is biochemical. The settings on record: substrate specificity, vector pUC19-AB (control).
Protocol: as §1, §2
Data set [3] relates to Escherichia coli transformed with pUC18-B1. As to the kind of experiment: Growth on M9 agar medium containing bialaphos. The class given is cell-based. Particulars: 1 mM IPTG, 10 mg/L bialaphos. The procedure:
The about 1.2-kb EcoRI-BglII fragment that had been confirmed to have a bialaphos-resistance gene was ligated to the EcoRI-BamHI site of a commercially available plasmid vector pUC18, and the resultant plasmid was introduced into Escherichia coli, to thereby yield a transformed Escherichia coli strain having a resistance to bialaphos. A deletion plasmid was prepared by using the SmaI site in the about 1.2-kb EcoRI, BglII fragment and was used to transform Escherichia coli, and as a result, the herbicide-resistance gene of the present invention was confirmed to be present on an about 0.6-kb EcoRI-SmaI fragment. 2 μg of the hybrid plasmid pBRB1 was cleaved with restriction enzymes EcoRI and BglII (20 units each) at 37° C. for 2 hours and subjected to agarose electrophoresis, and only a 1.2 kb-fragment was cut and purified using GeneClean. On the other hand, 2 μg of the plasmid pUC18 was cleaved with EcoRI and BamHI (20 units each) at 37° C. for 2 hours, and the fragments were purified using GeneClean (manufactured by Bio101). […]
That is, the plasmid pUC18-B1 was cleaved with restriction enzymes EcoRI and SmaI (20 units each) at 37° C. for 2 hours and subjected to agarose electrophoresis, and only a 0.6 kb-fragment was cut and purified using GeneClean. […] The nucleotide sequence was determined by custom DNA sequencing service (Hokkaido System Science Co., Ltd.).

The test system of data set [4] is Escherichia coli transformed with pUC18-B2. Nature of the data set: Growth on M9 agar medium containing bialaphos. Particulars: 1 mM IPTG, 10 mg/L bialaphos. The class given is cell-based. Here is the method: That is, the plasmid pUC18-B1 was cleaved with restriction enzymes EcoRI and SmaI (20 units each) at 37° C. for 2 hours and subjected to agarose electrophoresis, and only a 0.6 kb-fragment was cut and purified using GeneClean. On the other hand, 2 μg of the plasmid pUC18 was cleaved with EcoRI and SmaI (20 units each) at 37° C. for 2 hours, and the fragments were purified using GeneClean (manufactured by Bio101). The DNA fragments were allowed to react using Takara Ligation kit at 16° C. for 3 hours, to thereby yield a solution of the plasmid pUC18-B2 obtained by integrating the about 0.6-kb EcoRI, SmaI-cleaved DNA fragment derived from pBRB1 into the EcoRI, SmaI-cleaved DNA fragment of the plasmid pUC18. […] The nucleotide sequence was determined by custom DNA sequencing service (Hokkaido System Science Co., Ltd.).

The test system of data set [5] is Streptomyces lividans introduced with hybrid plasmid pBRB1. Nature of the data set: Bialaphos resistance of transformants. The settings on record: all transformants with pBRB1. The class given is cell-based. Here is the method: The hybrid plasmid mixture thus obtained was used to transform a protoplast of Streptomyces lividans. The protoplast was regenerated, and then transformed strains having a bialaphos resistance were selected on a selective medium containing 10 mg/L bialaphos. The Streptomyces lividans used above as a host is a bacterial strain obtained by removing a plasmid pIJ703 from Streptomyces lividans 3131 by protoplastization and regeneration. Streptomyces lividans 3131 was obtained from Department of Antibiotics, National Institute of Health in 1985 (“The Journal of Antibiotics” 1985, vol. 38, pp. 390-400). […]
From the resultant two bialaphos-resistant strains, plasmids were extracted in accordance with a known method (“Current Topics in Microbiology and Immunology” 1982, vol. 96, pp. 69). […] These plasmids derived from the two strains were separately cleaved with a restriction enzyme BglII and analyzed by agarose electrophoresis. In both cases, the electrophoresis detected not only the DNA fragment of pIJ703 used in the vector but also an about 5.7-kb DNA fragment. […]

The subject of data set [6] is CP(=O)(O)CC[C@H](N)C(=O)O. Nature of the data set: cells, lysate or membranes named. The settings on record: other: substrate specificity; crude enzyme, vector pUC19-SH (control); pH 8.0.
Protocol: as §1, §2

Broadly, the Km is the substrate concentration at which the rate is half of its maximum. Take `CP(=O)(O)CC[C@H](N)C(=O)O` (racemic) [PPT, phosphinothricin]: the Km in data set [1] stood at 2460 µM; in data set [2] it was 14300 µM.

As to `CS(=O)(=O)CC[C@H](N)C(=O)O` [MS, methionine sulfone], the figures for the Km in data set [1] and in data set [2] were 13000 µM and 2200 µM, respectively.

As to `C[C@H](NC(=O)[C@H](C)NC(=O)[C@@H](N)CCP(C)(=O)O)C(=O)O` [bialaphos], the “growth on medium containing bialaphos” value in data set [3] and in data set [4] was “found to grow” each time. The “resistance of transformants to bialaphos” value in data set [5] was “all the resultant transformants were found to have a resistance to bialaphos”.

In the case of “enzyme capable of acetylating PPT derived from Streptomyces hygroscopicus (pUC19-SH) (Streptomyces hygroscopicus)”, in data set [6], the Km amounted to 90 µM.
